In patent EP2678315B1, “(Pyridin-4-yl)benzylamides as allosteric modulators of alpha 7 nAChR” (Janssen Pharmaceutica, N.V., priority 2011, dated 2012):
Read-outs that look alike come from different tables or passages of the source.

Legend:
[1] = target: T1, human alpha 7-wt nAChR (Homo sapiens, UniProt P36544); experiment: Ca2+ flux imaging (FDSS) (protocol B); type: cell-based; conditions: for Emax: read-out: % Efficacy
T1 construct: expressed in transfected cells
Procedure: Example D.1 : Ca^2+ flux imaging (FDSS) (protocol B)
• a) Assay buffer Hanks buffered saline solution (HBSS, Invitrogen, Belgium), supplemented with 10 mM HEPES (Invitrogen, Belgium), CaCl2 to a final concentration of 5 mM, 0.1 % Bovine serum albumin (Sigma-Aldrich NV, Belgium). • b) Calcium-sensitive dye - Fluo-4AM Fluo-4AM (Molecular Probes, USA) was dissolved in DMSO containing 10% Pluronic acid (Molecular Probes, USA) to give a stock solution which was diluted in assay buffer supplemented with 5 mM probenicid (Sigma, Aldrich NV, Belgium) to give a final concentration of 2 µM • c) 384-well plates Black-sided, transparent bottomed 384 well plates coated with poly-D-lysine, PDL pre-coated (Coming, Incorporated, USA) • d) Calcium flux measurement A Functional drug screening system (FDSS, Hamamatsu) was used to measure intracellular free-calcium flux signals.
Monolayers of human alpha 7-wt nAChR-expressing cells were grown in black-sided, transparent bottomed 384 well plates coated with PDL for 24 hours prior to loading with a fluorescent calcium indicator, fluo-4AM for up to 120 minutes.
PAM activity was detected in real time by applying the compounds to be tested to the loaded cells along with an alpha 7 nicotinic receptor agonist during constant monitoring of cellular fluorescence in a FDSS. Compounds giving peak fluorescent responses greater than the response due to agonist alone, were consideted to be alpha 7 nAChR PAMs. The alpha 7 nicotinic receptor agonist was choline, applied at a sub-maximal concentration of 100 µM. In a further setting of the present invention the compounds were applied prior to the alpha 7 nicotinic receptor agonist, in a particular 10 minutes prior to the agonist.
A control response to choline was calculated on each plate from the difference in peak in fluorescence in wells receiving either choline or assay buffer alone. Compounds of the present invention were tested at a concentration range from 0.01 µM to 30 µM. Compounds were considered to have an interesting activity when they potentiated the choline signal at least with 200 % when tested at a concentration of 30 µM (the efficacy of 100 µM choline was defined as 100% in the absence of a PAM). An EC50 (or pEC50) was determined as a concentration relating to half the maximal effect, when a clear sigmoidal curve with top plateau was obtained.

[2] = target: T1, human alpha 7-wt nAChR; experiment: Patch-clamp current recording (whole-cell voltage-clamp, GH4C1 cells); type: cell-based; parameters: key: Type 0 compounds minimally change the effect size of the current elicited by 1 mM choline.; Type 1 compounds enhance the effect size of the current elicited by 1 mM choline but minimally alter the kinetics of the receptor.; Type 2 compounds enhance the effect size of the current elicited by 1 mM choline while reducing the rate and/or the extent of desensitization.; Type 3 compounds enhance the effect size of the current elicited by 1 mM choline. When tested at higher concentrations up to 10 µM they completely inhibit desensitization; Type 4 compounds allow for an initial desensitization of the receptor followed by a re-opening of the receptor during agonist application; conditions: current elicited by 1 mM choline
Procedure: The compounds of the present invention are classified as type 1-4, based on qualitative kinetic properties, as determined by whole-cell voltage-clamp recordings. This classification is based on the effect of an alpha 7 PAM compound, as described hereinbefore, on the signal elicited by an agonist application. In particular, said agonist is choline at a concentration of 1mM. In a preferred experimental setting, said alpha 7 PAM compound and choline are simultaneously applied to the cell, as described hereinafter. Desensitization is defined as the closure of the receptor upon activation during the application of the agonist in whole-cell voltage-clamp electrophysiology measurements seen as the reduction of the […] current after initial activation by the agonist.
The definition of the PAM types 1-4 is described hereinafter: Type 0 compounds minimally change the effect size of the current elicited by 1 mM choline. Type 1 compounds enhance the effect size of the current elicited by 1 mM choline but minimally alter the kinetics of the receptor. In particular, the rate and the extent of desensitization and of deactivation of the receptor elicited by the agonist is not affected. The compound-modulated response to 1 mM choline, therefore, is close to a linear scaling of the 1 mM choline response in absence of the alpha 7 PAM compound: Type 2 compounds enhance the effect size of the current elicited by 1 mM choline while reducing the rate and/or the extent of desensitization. Deactivation of the receptor is generally unaffected. Type 3 compounds enhance the effect size of the current elicited by 1 mM choline. […] Deactivation of the receptor may be slowed down. Type 4 compounds allow for an initial desensitization of the receptor followed by a re-opening of the receptor during agonist application. At low-potency concentrations of the alpha 7 PAM compound, the agonist-induced activation, which is followed by desensitization, can still be separated from the compound-induced re-opening as an initial inward current-maximum. At higher potency concentrations of the alpha 7 PAM compound, the re-opening occurs faster than the closure due to desensitization so that the initial current-maximum disappears.
A compound was considered to have interesting PAM-like activity when the potentiation of the peak current was at least 200% compared to the control choline response (= 100%). Such compounds are classified as belonging to a particular PAM type in the Experimental Part. Compounds not meeting the condition are not classified as belonging to a particular PAM-type.
The compounds also have a potentiating effect on the response to choline when measured by whole-cell patch clamp electrophysiology in GH4C1 cells stably over-expressing the human wild-type alpha 7 receptor.
Example D.2 : Patch-clamp current recording
Patch-clamp recording from mammalian cells has provided a powerful means of assessing the function of membrane-bound proteins thought to be subunits of ligand-gated ion channels. Activation of such proteins by endogenous or exogenous ligands cause opening of a pore associated with the receptor through which ions flow down their electrochemical gradient. In the case of the human alpha 7-wt nAChR-expressing GH4C1 recombinant cell line the preferential permeability to calcium of this receptor means that calcium flows into the cell upon activation by ACh, choline and other nicotinic ligands giving rise to a calcium current. Since this receptor rapidly desensitizes in the presence of agonist it is important that an application system is used which is capable of very rapid switching of solutions (< 100 ms) to prevent partial or full desensitisation of receptor responses coincident with the time of agonist application. Consequently, a second convenient technique to assess the enhancement of nicotinic efficacy is a patch-clamp recording from human alpha 7-wt nAChR-expressing GH4C1 cells coupled with a rapid-application system. […]

[3] = Ca2+ assay as described in D.1, read-out: pEC50 (converted)

T1 sequence (P36544 23-502): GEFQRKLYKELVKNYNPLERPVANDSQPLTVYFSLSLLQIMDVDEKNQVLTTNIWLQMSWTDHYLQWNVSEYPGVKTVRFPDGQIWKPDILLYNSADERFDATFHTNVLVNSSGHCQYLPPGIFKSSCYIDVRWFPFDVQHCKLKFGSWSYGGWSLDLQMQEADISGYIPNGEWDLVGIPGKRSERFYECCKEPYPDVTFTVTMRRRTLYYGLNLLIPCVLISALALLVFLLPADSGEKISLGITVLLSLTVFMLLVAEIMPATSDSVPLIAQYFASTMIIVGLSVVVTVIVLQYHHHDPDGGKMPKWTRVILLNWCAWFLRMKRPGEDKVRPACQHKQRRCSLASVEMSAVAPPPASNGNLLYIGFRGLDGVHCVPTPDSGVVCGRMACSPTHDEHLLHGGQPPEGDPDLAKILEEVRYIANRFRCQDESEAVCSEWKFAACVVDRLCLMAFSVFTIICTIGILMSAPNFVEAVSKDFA

Structure (SMILES)	EC50 [1, 3] [nM]	PAM type [2]	Emax ([1]; Ca2+ assay as described in D.1) [%]	EC50 [1] [nM]	Emax [1] [%]
Cc1cc(-c2ccc(N3C[C@@H](C)O[C@@H](C)C3)cc2CNC(=O)CC2CC2)cc(C)n1 [Compound 1, N-[[5-[(2R,6S)-2,6-dimethyl-4-morpholinyl]-2-(2,6-dimethyl-4-pyridinyl)phenyl]methyl]-cyclopropaneacetamide]	40.7	3			
Cc1cc(-c2ccc(N3C[C@@H](C)O[C@@H](C)C3)cc2CNC(=O)C(C)C)cc(C)n1 [Compound 2, N-[[5-[(2R,6S)-2,6-dimethyl-4-morpholinyl]-2-(2,6-dimethyl-4-pyridinyl)phenyl]methyl]-2-methyl-propanamide]	37.2	2	817		
Cc1cc(-c2ccc(N3C[C@@H](C)O[C@@H](C)C3)cc2CNC(=O)c2cc(C)on2)cc(C)n1 [Compound 3]		1		457	
Cc1cc(-c2ccc(N3C[C@@H](C)O[C@@H](C)C3)cc2CNC(=O)c2conc2C)cc(C)n1 [Compound 4]	45.7	2			
Cc1cc(-c2ccc(N3C[C@@H](C)O[C@@H](C)C3)cc2CNC(=O)C2CC2)cc(C)n1 [Compound 6]	120	2			
Cc1cc(-c2c(F)cc(N3C[C@@H](C)O[C@@H](C)C3)cc2CNC(=O)C2CCOCC2)cc(C)n1 [Compound 86]	148	3			
Cc1cc(-c2c(F)cc(N3C[C@@H](C)O[C@@H](C)C3)cc2CNC(=O)C2CC2)ccn1 [Compound 88]	209	2			868
Cc1cc(-c2c(F)cc(N3C[C@@H](C)O[C@@H](C)C3)cc2CNC(=O)C(C)C)ccn1 [Compound 89]	72.4	2			
Cc1cc(-c2c(F)cc(N3C[C@@H](C)O[C@@H](C)C3)cc2CNC(=O)c2conc2C)ccn1 [Compound 91]	61.7	2			
Cc1cc(-c2c(F)cc(N3CCO[C@@H](C(F)(F)F)C3)cc2CNC(=O)C(C)C)cc(C)n1 [Compound 99]	9.77	3			292
Cc1cc(-c2c(F)cc(N3CCO[C@@H](C(F)(F)F)C3)cc2CNC(=O)c2cc(C)on2)cc(C)n1 [Compound 100]	155	2			
Cc1cc(-c2c(F)cc(N3CCO[C@@H](C(F)(F)F)C3)cc2CNC(=O)C2CC2)cc(C)n1 [Compound 102]	33.1	3			962
Cc1cc(-c2c(F)cc(N3CCO[C@@H](C(F)(F)F)C3)cc2CNC(=O)c2conc2C)cc(C)n1 [Compound 103]	16.6	3			796
Cc1cc(-c2c(F)cc(N3CCO[C@@H](C(F)(F)F)C3)cc2CNC(=O)CC2CC2)cc(C)n1 [Compound 104]	9.12	3			
Cc1cc(-c2c(F)cc(N3CCO[C@H](C(F)(F)F)C3)cc2CNC(=O)CC2CCC2)cc(C)n1 [Compound 105]	17	3			559
Cc1cc(-c2c(F)cc(N3CCO[C@H](C(F)(F)F)C3)cc2CNC(=O)c2conc2C)cc(C)n1 [Compound 106]	36.3	2			159
Cc1cc(-c2c(F)cc(N3CCO[C@H](C(F)(F)F)C3)cc2CNC(=O)C(C)C)cc(C)n1 [Compound 107]	30.9	2			266
Cc1cc(-c2c(F)cc(N3CCO[C@H](C(F)(F)F)C3)cc2CNC(=O)CC2CC2)cc(C)n1 [Compound 108]	18.6	2			432
Cc1cc(-c2c(F)cc(N3CCO[C@H](C(F)(F)F)C3)cc2CNC(=O)C2CC2)cc(C)n1 [Compound 109]	81.3	3			258
Cc1cc(-c2c(F)cc(N3CCO[C@H](C(F)(F)F)C3)cc2CNC(=O)CC(C)C)cc(C)n1 [Compound 110]	5.01	3			384
Cc1cc(-c2c(F)cc(N3CCO[C@H](C(F)(F)F)C3)cc2CNC(=O)c2cc(C)on2)cc(C)n1 [Compound 111]	331	1			550
Cc1cc(-c2c(F)cc(N3CCOC(C)C3)cc2CNC(=O)c2cc(C)on2)cc(C)n1 (centres unmarked) [Compound 112]	1070	2			443
Cc1cc(-c2c(F)cc(N3CCOC(C)C3)cc2CNC(=O)C(C)C)cc(C)n1 (centres unmarked) [Compound 113]	89.1	2			284
Cc1cc(-c2c(F)cc(N3CCOC(C)C3)cc2CNC(=O)CC2CC2)cc(C)n1 (centres unmarked) [Compound 114]	158	3			415
Cc1cc(-c2c(F)cc(N3CCOC(C)C3)cc2CNC(=O)C2CC2)cc(C)n1 (centres unmarked) [Compound 115]	525	2			232
Cc1cc(-c2c(F)cc(N3CCOC(C)C3)cc2CNC(=O)CC(C)C)cc(C)n1 (centres unmarked) [Compound 116]	20.9	3			374
Cc1cc(-c2c(F)cc(N3CCOC(C)C3)cc2CNC(=O)CC2CCC2)cc(C)n1 (centres unmarked) [Compound 118]	23.4	3			485
Cc1cc(-c2c(Cl)cc(N3C[C@@H](C)O[C@@H](C)C3)cc2CNC(=O)CC2CC2)cc(C)n1 [Compound 119]	28.8	2			624
Cc1cc(-c2c(Cl)cc(N3C[C@@H](C)O[C@@H](C)C3)cc2CNC(=O)c2cc(C)on2)cc(C)n1 [Compound 120]	661	1			
Cc1cc(-c2c(Cl)cc(N3C[C@@H](C)O[C@@H](C)C3)cc2CNC(=O)C(C)C)cc(C)n1 [Compound 121]	38	2			435
